Assay results published in patent US20100173930A1, “Certain Chemical Entities, Compositions and Methods” (priority 2006, published 2010).

Test system: SKM MYOFIBRIL
Test: SKM myofibril AC1.4 (ATPase, PK/LDH coupled enzyme system); note: unit not given here
Format: biochemical
Conditions: screen at pCa=6.5

| Compound | SKM MYOFIBRIL AC1.4 (median) |
| --- | --- |
| NC(=O)c1ccc2nc(-c3ccccc3O)c(NCc3cccc(Cl)c3)n2c1 [3-{[(3-chlorophenyl)methyl]amino}-2-(2-hydroxyphenyl)-4-hydroimidazo[1,2-a]pyridine-6-carboxamide] | 1.2788 |
| Cc1cccc(CNc2c(-c3ccccc3O)nc3cc(C)ccn23)c1 [2-(7-methyl-3-{[(3-methylphenyl)methyl]amino}-4-hydroimidazo[1,2-a]pyridin-2-yl)phenol] | 0.9541 |
| Oc1ccccc1-c1nc2ccc(Br)cn2c1NCc1ccc(F)cc1 [2-(6-bromo-3-{[(4-fluorophenyl)methyl]amino}-4-hydroimidazo[1,2-a]pyridin-2-yl)phenol] | 5.6018 |
| Oc1ccccc1-c1nc2cc(Br)ccn2c1NCc1cccc(Cl)c1 [2-(7-bromo-3-{[(3-chlorophenyl)methyl]amino}-4-hydroimidazo[1,2-a]pyridin-2-yl)phenol] | 8.3071 |
